Values quoted from earlier work, collected in US7816404B2, “Methods for the preparation and use of ferric pyrophosphate citrate chelate compositions” (Rockwell Medical Technologies, Inc., priority 2007, dated 2010).

Conditions: stability constant with ferric ion

Compound	log Kstab for ferric ion
O=C(O)CC(O)(CC(=O)O)C(=O)O [citrate]	12
O=P(O)(O)OP(=O)(O)O [pyrophosphate]	22.2
